The species named for the test is Mus musculus. Put plainly: animal or person. Conditions: 24 h.

The compound `CCCC(CCC)C(=O)O` [VALPROIC ACID] gave a survival at 100 mg/kg of 80%.
